Experimental data reported in patent US9173869B2, “Mediators of hedgehog signaling pathways, compositions and uses related thereto” (CURIS, INC., priority 1999, dated 2015).
pIC50: −log10 of the molar value.

What follows are compounds tested on gli-1 mRNA in ptc-null cells (assay: Ptc-null assay (RT-PCR / quantitative real-time PCR of gli-1 mRNA)). Conditions: ptc-null cells cultured 3 days, 1 μM of test compound, compared with vehicle.
Format: cell-based, mouse
Description: Ptc-null cells were cultured for 3 days in the presence of vehicle; jervine, a known Patched pathway antagonist (i) used here as a positive control; or 1 μM of a test compound. Total ribonucleic acid (RNA) was isolated from the cells and used for reverse transcriptase-polymerase chain reaction (RT-PCR). […] The gli-1 and actin mRNA samples were then loaded on 1.5% agarose gel and were detected by staining with ethidium bromide. The same samples were analyzed by the quantitative real-time polymerase chain reaction method to quantify the levels of gli-1 mRNA.

Compound | expression of gli-1
CC(c1nc2ccccc2c(=O)n1-c1ccc(F)cc1)N(C)C(=O)Nc1cccc(C(F)(F)F)c1 (stereo not drawn) [Compound 11, 2-{1′-[N-(3″-trifluoromethylphenylcarbamoyl)-N-methyl-amino]ethyl}-3-(4′″fluorophenyl)-quinazolin-4-one] | no significant decrease
CCCN(CCC(=O)NC1CCCc2ccccc21)C(=O)c1cc(OC)cc(OC)c1 (stereo not drawn) [Compound 47] | no significant decrease
CCC(C)N(CCC(=O)NC1CCCc2ccccc21)C(=O)c1cccc2ccccc12 (stereo not drawn) [Compound 48] | no significant decrease
CCC(C)N(CCC(=O)NC1CCCc2ccccc21)C(=O)COc1ccc(Cl)cc1 (stereo not drawn) [Compound 49] | no significant decrease

Same assay, conditions: ptc-null cells cultured 3 days, positive control, compared with vehicle

Compound | expression of gli-1 mRNA
CC1=C2C(=O)[C@H]3[C@@H](CC=C4C[C@@H](O)CC[C@@]43C)[C@@H]2CC[C@]12O[C@@H]1C[C@H](C)CN[C@H]1[C@H]2C [jervine, reference compound] | significantly decreased

These compounds were tested on Hedgehog pathway (Shh-induced Gli-transcription activity) in 10T1/2(s12) cells (assay: Gli-Luc assay (high-throughput screening, Hedgehog-responsive luciferase reporter)). Conditions: Gli-Luc response, OCT-SHH 0.3 μg/ml, about 24 h.
Format: cell-based
Description: Compounds to be tested are dissolved in DMSO to a concentration of 10 mM, and stored at −20° C. To activate the Hedgehog pathway in the assay cells, an octylated (lipid-modified) form of the N-terminal fragment of the Sonic Hedgehog protein (OCT-SHH) is used. This N-terminal SHH fragment is produced bacterially. The octylation involves reaction of the N-terminal fragment, via its amino-terminal cysteine moiety, with octyl maleimide.
Compounds may be tested in the “Gli-Luc” assay below, using the cell line 10T(s12), wherein the cells contain a Hedgehog-responsive reporter construct utilizing Luciferase as the reporter gene. In this way, Hedgehog pathway signaling activity can be measured via the Gli-Luc response.
10t1/2(s12) cells are plated in a 96-well micro-titer plate (MTP) at 20,000 cells/well in full medium [DMEM with 10% FBS]. Then plates are placed in the incubator for incubation overnight (O/N), at 37° C. and 5% CO2. After 24 h, the medium is replaced with Luciferase-assay medium (DMEM with 0.5% FBS). Compounds are thawed and diluted in assay medium at 3:1000 (about 300-fold) resulting in a starting concentration of about 30 μM.
Subsequently, 150 μl of each 30 μM sample is added to the first wells (in triplicate). The MTP samples are then diluted at 3-fold dilutions to a total of seven wells, ultimately resulting in a regiment of seven dilutions in triplicate, for each compound. Next, the protein ligand OCT-SHH is diluted in Luciferase-assay medium and added to each well at a final concentration of 0.3 μg/ml. Plates are then returned to the incubator for further incubation O/N, at 37° C. and 5% CO2. After about 24 h, plates are removed from the incubator and the medium is aspirated/discarded. Wells are washed once with assay buffer [PBS+1 mM Mg^2+ and 1 mM Ca^2+]. Then 50 μl of assay buffer is added to each well. The Luciferase assay reagent is prepared as described by the vendor (LucLite kit from Packard), and 50 μl is added to each well. Plates are incubated at room temperature (RT) for about 30 minutes after which the signals are read, again at RT, on a Topcount (Packard).

pIC50 | Compound
> 5.30 | CCCN(C(=O)Nc1cccc(Cl)c1)C(C)c1nc2ccccc2c(=O)n1-c1ccc(F)cc1 (stereo not drawn) [Compound 34]
> 5.30 | CCCN(C(=O)Nc1cccc(C(F)(F)F)c1)C(C)c1nc2ccccc2c(=O)n1-c1ccc(F)cc1 (stereo not drawn) [Compound 36]
> 5.30 | CCCN(C(=O)Nc1cccc(OC)c1)C(C)c1nc2ccccc2c(=O)n1-c1ccc(F)cc1 (stereo not drawn) [Compound 38]
> 5.30 | CCC(c1nc2ccccc2c(=O)n1-c1ccc(C)cc1)N(CCc1ccccc1)C(=O)CCCCF (stereo not drawn) [Compound 39]
> 5.00 | CCCCc1ccc(C(=O)N(Cc2ccccc2)C(CC)c2nc3ccccc3c(=O)n2-c2ccc(C)cc2)cc1 (stereo not drawn) [Compound 40]
> 5.00 | CCCCCCCCC(=O)N(CCCCC)C(C)c1nc2ccccc2c(=O)n1-c1ccccc1 (stereo not drawn) [Compound 41]
> 5.30 | CCC(=O)N1CCN(C(CC)c2nc3ccccc3c(=O)n2-c2ccc(C)cc2)C(C)C1 (stereo not drawn) [Compound 42]
> 5.00 | CC(c1nc2ccccc2c(=O)n1-c1ccc(F)cc1)N1CCN(C(=O)Nc2ccc(Cl)c(Cl)c2)CC1 (stereo not drawn) [Compound 43]
> 5.30 | CCC(c1nc2ccccc2c(=O)[nH]1)N1CCN(C(=O)Nc2ccc(Cl)c(Cl)c2)C(C)C1 (stereo not drawn) [Compound 45]
> 6.30 | CCC(c1nc2ccccc2c(=O)[nH]1)N1CCN(C(=O)c2ccc(-c3ccccc3)cc2)C(C)C1 (stereo not drawn) [Compound 46]
> 5.30 | CCCN(CCC(=O)NC1CCCc2ccccc21)C(=O)c1cc(OC)cc(OC)c1 (stereo not drawn) [Compound 47]
> 6.30 | CCC(C)N(CCC(=O)NC1CCCc2ccccc21)C(=O)c1cccc2ccccc12 (stereo not drawn) [Compound 48]
> 6.00 | CCC(C)N(CCC(=O)NC1CCCc2ccccc21)C(=O)COc1ccc(Cl)cc1 (stereo not drawn) [Compound 49]
> 5.30 | CC(c1nc2ccccc2c(=O)n1-c1ccc(F)cc1)N(C)C(=O)Nc1cccc(C#N)c1 (stereo not drawn) [Compound 51]
> 6.00 | CC(c1nc2ccccc2c(=O)n1-c1ccc(F)cc1)N(C)C(=O)Nc1ccc(Cl)c(Cl)c1 (stereo not drawn) [Compound 53]
> 5.30 | CC(c1nc2ccccc2c(=O)n1-c1ccc(F)cc1)N(C)C(=O)Nc1cc(Cl)nc(Cl)c1 (stereo not drawn) [Compound 58]
> 6.00 | CC(c1nc2ccccc2c(=O)n1-c1ccc(F)cc1)N(C)C(=O)Nc1ccc(Cl)c(C(F)(F)F)c1 (stereo not drawn) [Compound 61]
> 5.00 | CCOC(=O)c1ccccc1NC(=O)N(C)C(C)c1nc2ccccc2c(=O)n1-c1ccc(F)cc1 (stereo not drawn) [Compound 63]
> 5.00 | CC(c1nc2ccccc2c(=O)n1-c1ccc(F)cc1)N(C)C(=O)Nc1ccc([N+](=O)[O-])cc1Cl (stereo not drawn) [Compound 64]
> 5.00 | CC(c1nc2ccccc2c(=O)n1-c1ccc(F)cc1)N(C)C(=O)Nc1ccc(Cl)cc1[N+](=O)[O-] (stereo not drawn) [Compound 66]

Further lines, the compound ahead of its results:

Compound | pIC50
O=C(NCc1nc2ccccc2c(=O)n1-c1ccc(F)cc1)Nc1ccc(Cl)c(C(F)(F)F)c1 [Compound 5, 1-(4-Chloro-3-trifluoromethyl-phenyl)-3-[3-(4-fluoro-phenyl)-4-oxo-3,4-dihydro-quinazolin-2-ylmethyl]-urea] | > 7.00
O=C(NCc1nc2ccccc2c(=O)n1-c1ccc(F)cc1)Nc1cc(Cl)nc(Cl)c1 [Compound 6, 1-(2,6-Dichloro-pyridin-4-yl)-3-[3-(4-fluoro-phenyl)-4-oxo-3,4-dihydro-quinazolin-2-ylmethyl]-urea] | > 6.30
CC(c1nc2ccccc2c(=O)n1-c1ccc(F)cc1)N(C)C(=O)Nc1cccc(C(F)(F)F)c1 (stereo not drawn) [Compound 11, 2-{1′-[N-(3″-trifluoromethylphenylcarbamoyl)-N-methyl-amino]ethyl}-3-(4′″fluorophenyl)-quinazolin-4-one] | > 5.30
CC(c1nc2ccccc2c(=O)n1-c1ccc(F)cc1)N(Cc1ccco1)C(=O)Nc1cccc(F)c1 (stereo not drawn) [Compound 31] | > 5.00
CC(c1nc2ccccc2c(=O)n1-c1ccc(F)cc1)N(C)C(=O)Nc1ccc([N+](=O)[O-])c(C(F)(F)F)c1 (stereo not drawn) [Compound 32] | > 5.30
O=C(NCc1nc2ccccc2c(=O)n1-c1ccc(F)cc1)Nc1cccc(C(F)(F)F)c1 [Compound 44] | > 6.00
O=C(Cc1cccc(C(F)(F)F)c1)NCCc1nc2ccccc2c(=O)n1-c1ccc(F)cc1 [Compound 50] | > 6.00
CC(c1nc2ccccc2c(=O)n1-c1ccc(F)cc1)N(C)C(=O)Nc1cccc(SC(F)(F)F)c1 (stereo not drawn) [Compound 52] | > 6.00
CC(c1nc2ccccc2c(=O)n1-c1ccc(F)cc1)N(C)C(=O)Nc1ccc(C(F)(F)F)cc1 (stereo not drawn) [Compound 54] | > 5.30
CC(c1nc2ccccc2c(=O)n1-c1ccc(F)cc1)N(C)C(=O)Nc1cccc(F)c1 (stereo not drawn) [Compound 55] | > 5.30
CC(c1nc2ccccc2c(=O)n1-c1ccc(F)cc1)N(C)C(=O)Nc1ccc(-c2ccccc2)cc1 (stereo not drawn) [Compound 56] | > 5.00
CC(C)c1cccc(NC(=O)N(C)C(C)c2nc3ccccc3c(=O)n2-c2ccc(F)cc2)c1 (stereo not drawn) [Compound 57] | > 5.00
Cc1c(NC(=O)N(C)C(C)c2nc3ccccc3c(=O)n2-c2ccc(F)cc2)cccc1[N+](=O)[O-] (stereo not drawn) [Compound 59] | > 5.30
CC(c1nc2ccccc2c(=O)n1-c1ccc(F)cc1)N(C)C(=O)Nc1ccc(SC(F)(F)F)cc1 (stereo not drawn) [Compound 60] | > 5.30
CC(c1nc2ccccc2c(=O)n1-c1ccc(F)cc1)N(C)C(=O)Nc1ccc([N+](=O)[O-])c(Cl)c1 (stereo not drawn) [Compound 62] | > 6.00
CCOOC(=O)c1cccc(NC(=O)N(C)C(C)c2nc3ccccc3c(=O)n2-c2ccc(F)cc2)c1 (stereo not drawn) [Compound 65] | > 5.00
Cc1c(NC(=O)NCc2nc3ccccc3c(=O)n2-c2ccc(F)cc2)cccc1SC(F)(F)F [Compound 67] | > 5.30
O=C(NCc1nc2ccccc2c(=O)n1-c1ccc(F)cc1)Nc1ccc(Cl)c(Cl)c1 [Compound 68] | > 6.00
O=C(NCc1nc2ccccc2c(=O)n1-c1ccc(F)cc1)Nc1ccc(Cl)c([N+](=O)[O-])c1 [Compound 69] | > 6.30
COc1cccc(NC(=O)NCc2nc3ccccc3c(=O)n2-c2ccc(F)cc2)c1C [Compound 71] | > 5.00
CC(NC(=O)Nc1cccc(C(F)(F)F)c1)c1nc2ccccc2c(=O)n1-c1ccc(F)cc1 (stereo not drawn) [Compound 73] | > 5.30
O=C(NCCCc1nc2ccccc2c(=O)n1-c1ccc(F)cc1)Nc1cccc(C(F)(F)F)c1 [Compound 74] | > 5.30
O=C(Nc1cccc(C(F)(F)F)c1)NC(c1nc2ccccc2c(=O)n1-c1ccc(F)cc1)C1CC1 (stereo not drawn) [Compound 75] | > 5.30

What follows are compounds tested on ptc-1 lacZ reporter gene expression in lung explants (assay: E12.5 ptc-1 (d11) lacZ lung explant culture, lacZ staining). Conditions: lung explants grown 48 hrs, versus untreated control.
Format: cell-based, mouse
Description: In yet another experiment, E12.5 old ptc-1 (d11) lacZ lungs were harvested and transgenic embryos identified by lacZ detection using tails. Lung explants were grown submerged in mouse explant medium (DMEM based, additives optimized for the culture of mouse lungs) for 48 hrs, fixed in lacZ fixative, rinsed and stained for lacZ O/N at 37° C. Control tissue was untreated, while test tissue was treated with 11. Results are depicted in FIG. 34: (A) Untreated control. Strong lacZ expression can be observed in distal and proximal mesenchyme.

Compound | lacZ reporter gene expression
CC(c1nc2ccccc2c(=O)n1-c1ccc(F)cc1)N(C)C(=O)Nc1cccc(C(F)(F)F)c1 (stereo not drawn) [Compound 11, 2-{1′-[N-(3″-trifluoromethylphenylcarbamoyl)-N-methyl-amino]ethyl}-3-(4′″fluorophenyl)-quinazolin-4-one] | significantly decreased reporter gene expression

What follows are compounds tested on murine BCC lesions (assay: Cultured skin punches with BCC lesions from UV-irradiated Ptc-knockout heterozygote mouse (X-gal staining)). Conditions: 10 μM versus 5 μM in culture medium, 6 days.
Format: cell-based
Description: Mouse 456 is a Ptc-knockout heterozygote that received UV irradiation for 6 months. The mouse developed many small BCC lesions, which were blue after X-gal staining. The mouse was sacrificed and the skin was excised with a 2 mm skin punch. Those skin punches were then cultured for 6 days. […] The effect was more obvious when 10 μM of 11 was added to the culture medium instead of 5 μM of 11.

Compound | effect on BCC lesions at 10 μM instead of 5 μM
CC(c1nc2ccccc2c(=O)n1-c1ccc(F)cc1)N(C)C(=O)Nc1cccc(C(F)(F)F)c1 (stereo not drawn) [Compound 11, 2-{1′-[N-(3″-trifluoromethylphenylcarbamoyl)-N-methyl-amino]ethyl}-3-(4′″fluorophenyl)-quinazolin-4-one] | more obvious

Same assay, conditions: skin punches of mouse 456 cultured for 6 days, compared to vehicle (DMSO), 5 or 10 μM

Compound | number and size of BCC lesions (blue spots)
CC(c1nc2ccccc2c(=O)n1-c1ccc(F)cc1)N(C)C(=O)Nc1cccc(C(F)(F)F)c1 (stereo not drawn) [Compound 11, 2-{1′-[N-(3″-trifluoromethylphenylcarbamoyl)-N-methyl-amino]ethyl}-3-(4′″fluorophenyl)-quinazolin-4-one] | can decrease the number and size of BCC lesions
